Results published in PubChem BioAssay (NCI).
“And” between values parts separate entries of the source, which are not always exact repeats. Identical values can stand only once.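 Growth conditions: 96-well plates. Treatment: test compound, 48 hours, 5 concentrations. Analysis: linear interpolation between bracketing concentrations; unreached endpoints set to highest concentration. Here, GI50 denotes the concentration required for 50% inhibition of growth. The concentration for full growth arrest is given as TGI.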

Experiments:
Assay in all cases: NCI tumour cell line growth inhibition, 48 h
M14 melanoma = system: M14 melanoma
NCI-H226 lung = system: NCI-H226 lung
MOLT-4 leukemia = system: MOLT-4 leukemia
786-0 renal = system: 786-0 renal
TK-10 renal = system: TK-10 renal
CAKI-1 renal = system: CAKI-1 renal
SF-268 CNS = system: SF-268 CNS
SF-539 CNS = system: SF-539 CNS
MCF7 breast = system: MCF7 breast
HCT-15 colon = system: HCT-15 colon

SMILES	GI50 (M14 melanoma)	TGI (M14 melanoma)	GI50 (NCI-H226 lung)	TGI (NCI-H226 lung)	GI50 (MOLT-4 leukemia)	TGI (MOLT-4 leukemia)	GI50 (786-0 renal)	TGI (786-0 renal)	GI50 (TK-10 renal)	TGI (TK-10 renal)	GI50 (CAKI-1 renal)	TGI (CAKI-1 renal)	GI50 (SF-268 CNS)	TGI (SF-268 CNS)	GI50 (SF-539 CNS)	TGI (SF-539 CNS)	GI50 (MCF7 breast)	TGI (MCF7 breast)	GI50 (HCT-15 colon)	TGI (HCT-15 colon)
COc1cc2c(c(O)c1Br)C(=O)c1c(O)cc(C[C@H](C)O)cc1[C@H]2[C@H]1c2cc(C[C@H](C)O)cc(O)c2C(=O)c2c1cc(OC)c(Br)c2O	11.4 µM and 20.9 µM	45.8 µM and > 100 µM	6.33 µM and 10.6 µM	30.9 µM and 47.6 µM	3.54 µM and 6.39 µM	67.5 µM and > 100 µM	23 µM and 14.1 µM	67.5 µM and > 100 µM	13.8 µM and 31.4 µM	67.5 µM and > 100 µM	10.6 µM and 28.4 µM	33.3 µM and 94.6 µM	12.3 µM and 31.2 µM	67.5 µM and > 100 µM	2.66 µM and 3.67 µM	14.8 µM and 13.6 µM	2.44 µM and 3.58 µM	67.5 µM and > 100 µM	10.4 µM and 17.4 µM	67.5 µM and > 100 µM
CCN(CC)CCOc1ccc(/C(=C(\Cl)c2ccccc2)c2ccccc2)cc1	1.03 µM and 1.73 µM	2.04 µM and 3.44 µM	5.46 µM and 4.01 µM	12.9 µM and 16.3 µM	2.98 µM and 3.71 µM	11.8 µM and 13.1 µM	0.94 µM and 1.7 µM	1.81 µM and 3.17 µM	5.62 µM and 2.83 µM	12.6 µM and 10.2 µM	5.47 µM and 1.66 µM	12.3 µM and 5.48 µM	5.47 µM and 4.78 µM	11.9 µM and 19.2 µM	1.77 µM and 1.87 µM	5.49 µM and 4.29 µM	0.307 µM and 0.577 µM	7.55 µM and 2.99 µM	1.47 µM and 1.72 µM	5.01 µM and 7.38 µM
CC[CH2][Sn]([CH2]CC)([O]C(=O)c1cccnc1SC)[O][Sn]([CH2]CC)([CH2]CC)[O]C(=O)c1cccnc1SC	0.513 µM	1.38 µM	0.614 µM	1.79 µM	0.149 µM	> 16.6 µM	0.313 µM	0.675 µM	0.409 µM	1.09 µM	0.266 µM	0.801 µM	0.33 µM	0.969 µM	0.468 µM	1.24 µM	0.495 µM	1.72 µM	0.246 µM	0.998 µM
CC/C(=C(/c1ccc(O)cc1)c1ccc(OCCNC)cc1)c1ccccc1	1.69 µM	3.31 µM	5.03 µM	20.3 µM	2.46 µM	7.14 µM	1.64 µM	3.27 µM	2.76 µM	7.76 µM	2.75 µM	8.58 µM	2.48 µM	7.27 µM	1.7 µM	3.22 µM	0.0324 µM	2.95 µM	1.87 µM	4.07 µM
FC(F)(F)c1cccc(Nc2nccc(-c3cnn4nc(-c5ccccc5)ccc34)n2)c1	12 µM	24.5 µM	> 25 µM	> 25 µM	> 16.5 µM	> 25 µM	5.22 µM	11.2 µM	9.22 µM	> 19.2 µM	10.2 µM	> 25 µM	10.3 µM	> 19.2 µM	6.59 µM	> 18.7 µM	6.82 µM	> 25 µM	8.5 µM	24.4 µM
O=C1Nc2c(C(F)(F)F)cccc2[C@]1(c1ccc(O)cc1)c1ccc(OC(F)(F)F)cc1	14.2 µM	29.2 µM	11.6 µM	32.4 µM	5.34 µM	23.6 µM	13.2 µM	28.1 µM	11.5 µM	25.3 µM	10.1 µM	22.7 µM	8.73 µM	24 µM	14.4 µM	27.6 µM	4.05 µM	16.9 µM	9.43 µM	23.3 µM
COc1cc(C2NC(=O)c3ccccc3N2)ccc1OCCCCCOc1c(OC)cc(C2=NOC(c3cc(OC)c(OC)c(OC)c3)C2)cc1OC (centres undefined)	20.4 µM	> 93 µM		> 100 µM	0.57 µM	> 100 µM	27.4 µM	> 78.7 µM	> 100 µM	> 100 µM	> 42.4 µM	> 100 µM	20.8 µM	> 100 µM	19.4 µM	84.7 µM	0.356 µM	> 100 µM	3.34 µM	> 100 µM
CC(C)c1nc(CN(C)C(=O)N[C@H](C(=O)N[C@@H](Cc2ccccc2)C[C@H](O)[C@H](Cc2ccccc2)NC(=O)OCc2cncs2)C(C)C)cs1	18 µM	41.7 µM	18.8 µM	39.4 µM	7.54 µM	27.5 µM	24.7 µM	53.5 µM	36.6 µM	> 92.6 µM	31.3 µM	68.2 µM	20.3 µM	66.7 µM	2.33 µM	49.4 µM	21 µM	64.9 µM	24.5 µM	> 100 µM
CC[C@@H]1C(=O)N(C)c2cnc(Nc3ccc(C(=O)NC4CCN(C)CC4)cc3OC)nc2N1C1CCCC1	0.00384 µM and < 0.01 µM	> 4.22 µM and 2.37 µM	0.343 µM and 0.982 µM	> 10 µM and 16.8 µM	0.00387 µM and < 0.01 µM	1.39 µM and 0.579 µM	0.025 µM and 0.0451 µM	1.62 µM and 3.98 µM	0.285 µM and 0.123 µM	> 7.36 µM and 5.56 µM	0.297 µM and 0.476 µM	> 10 µM and 13.6 µM	0.0156 µM and < 0.01 µM	> 10 µM and 7.8 µM	0.0269 µM and 0.0238 µM	0.352 µM and 0.583 µM	0.00331 µM and < 0.01 µM	> 4.96 µM and 5.55 µM	0.186 µM and 0.219 µM	> 4.57 µM and 6.38 µM
COc1ccc(-c2cc(=O)c3ccc(O)cc3o2)cc1OC		> 100 µM		> 100 µM		> 100 µM		> 100 µM		> 100 µM		> 100 µM		> 100 µM		> 100 µM		> 100 µM		> 100 µM
O=c1[nH]ncc(Br)c1Br	2.09 µM	4.23 µM	2.19 µM	5.96 µM	2.41 µM	5.19 µM	4.08 µM	14.1 µM	3.45 µM	10.7 µM	1.44 µM	2.74 µM	3.02 µM	12.6 µM	2.42 µM	6.31 µM	2 µM	11 µM	1.72 µM	3.3 µM
CN1CCN(C)C12C=c1ccccc1=CC21CC1		34.8 µM		> 100 µM		54.8 µM		> 100 µM		> 100 µM		> 100 µM		> 77 µM		> 100 µM		> 100 µM		73.6 µM
Cn1c(=O)c2[nH]c(SCc3ccccn3)nc2n(C)c1=S		> 100 µM		> 100 µM		> 100 µM		> 100 µM		> 100 µM		> 100 µM		> 100 µM		> 100 µM		> 100 µM		> 100 µM
